Data: PubChem BioAssay AID330 (DTP/NCI, 2004)
Several values for one entry are separate records, joined by “and”; a condition that tells them apart may be missing. Equal entries are not always repeated. Inconclusive results and toxic doses are left out.

Test system: P388 leukemia ip, CD2F1 mice, survival T/C
Assay: NCI In Vivo Anticancer Drug Screen. Data for tumor model P388 Leukemia (intraperitoneal) in CD2F1 (CDF1) mice
Conditions: endpoint: median survival time, higher = longer survival
Method in brief: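 Mice carrying the transplanted tumor received test compound or vehicle. Survival was recorded in each group, and the value is the treated-group measurement divided by that of the vehicle-treated control group.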

[1] = dose: 12.5 mg/kg/injection, schedule: Q01DX009 (ip), vehicle: Klucel (hydroxypropylcellulose) (HPC)
[2] = dose: 25.0 mg/kg/injection, schedule: Q01DX009 (ip), vehicle: Klucel (hydroxypropylcellulose) (HPC)
[3] = dose: 50.0 mg/kg/injection, schedule: Q01DX009 (ip), vehicle: Klucel (hydroxypropylcellulose) (HPC)
[4] = dose: 50.0 mg/kg/injection, schedule: Q01DX009 (ip), vehicle: saline
[5] = dose: 100.0 mg/kg/injection, schedule: Q01DX009 (ip), vehicle: saline
[6] = dose: 100.0 mg/kg/injection, schedule: Q04DX002 (ip), vehicle: saline with Tween-80
[7] = dose: 200.0 mg/kg/injection, schedule: Q04DX002 (ip), vehicle: saline with Tween-80
[8] = dose: 400.0 mg/kg/injection, schedule: Q04DX002 (ip), vehicle: saline with Tween-80
[9] = dose: 60.0 mg/kg/injection, schedule: Q01DX005 (ip), vehicle: saline
[10] = dose: 120.0 mg/kg/injection, schedule: Q01DX005 (ip), vehicle: saline
[11] = dose: 240.0 mg/kg/injection, schedule: Q01DX005 (ip), vehicle: saline
[12] = dose: 25.0 mg/kg/injection, schedule: Q01DX009 (ip), vehicle: saline with Tween-80
[13] = dose: 50.0 mg/kg/injection, schedule: Q01DX009 (ip), vehicle: saline with Tween-80
[14] = dose: 100.0 mg/kg/injection, schedule: Q01DX009 (ip), vehicle: saline with Tween-80
[15] = dose: 200.0 mg/kg/injection, schedule: Q01DX009 (ip), vehicle: saline with Tween-80
[16] = dose: 100.0 mg/kg/injection, schedule: Q01DX009 (ip), vehicle: Klucel (hydroxypropylcellulose) (HPC)
[17] = dose: 100.0 mg/kg/injection, schedule: Q01DX001 (ip), vehicle: saline with Tween-80
[18] = dose: 200.0 mg/kg/injection, schedule: Q01DX001 (ip), vehicle: saline with Tween-80
[19] = dose: 400.0 mg/kg/injection, schedule: Q01DX001 (ip), vehicle: saline with Tween-80
[20] = dose: 200.0 mg/kg/injection, schedule: Q01DX009 (ip), vehicle: Klucel (hydroxypropylcellulose) (HPC)
[21] = dose: 50.0 mg/kg/injection, schedule: Q01DX005 (ip), vehicle: saline with Tween-80

CCCCCCCOc1ccc(C(=O)O)cc1
T/C [1]: 105 % of control
T/C [2]: 111 % of control
T/C [3]: 107 % of control

NCc1cc(=O)[nH]o1
T/C [4]: 89 % of control
T/C [5]: 92 % of control

CCN(CC)CCCCNC(=O)c1noc2cc([N+](=O)[O-])ccc12
T/C (dose: 3.12 mg/kg/injection, schedule: Q01DX005 (ip), vehicle: Klucel (hydroxypropylcellulose) (HPC)): 100 % of control
T/C (dose: 6.25 mg/kg/injection, schedule: Q01DX005 (ip), vehicle: Klucel (hydroxypropylcellulose) (HPC)): 99 % of control and 105 % of control
T/C (dose: 12.5 mg/kg/injection, schedule: Q01DX005 (ip), vehicle: Klucel (hydroxypropylcellulose) (HPC)): 103 % of control and 97 % of control
T/C (dose: 25.0 mg/kg/injection, schedule: Q01DX005 (ip), vehicle: Klucel (hydroxypropylcellulose) (HPC)): 103 % of control and 122 % of control and 96 % of control

CC(C)(C)c1ccc(Sc2cccc3c2C(=O)c2c(Sc4cccc(F)c4)cccc2C3=O)cc1
T/C [6]: 99 % of control
T/C [7]: 89 % of control
T/C [8]: 95 % of control

NC(=O)C1CC(O)CN1C(=O)c1cccnc1 (centres undefined)
T/C [9]: 101 % of control
T/C [10]: 100 % of control
T/C [11]: 93 % of control

CC/C(=N/N(C)C)C(=O)O
T/C [9]: 102 % of control
T/C [10]: 105 % of control
T/C [11]: 98 % of control

CCc1ccc(NC(=O)NC(=O)c2c(F)cccc2F)cc1
T/C [12]: 114 % of control
T/C (dose: 25.0 mg/kg/injection, schedule: Q01DX009 (ip), vehicle: saline): 106 % of control
T/C [13]: 106 % of control and 116 % of control
T/C [4]: 103 % of control and 115 % of control
T/C [14]: 100 % of control and 120 % of control
T/C [5]: 101 % of control and 98 % of control
T/C [15]: 120 % of control and 97 % of control
T/C (dose: 200.0 mg/kg/injection, schedule: Q01DX009 (ip), vehicle: saline): 100 % of control and 103 % of control

O=S1(=O)CC(Cl)(Br)C1 (tested in a mixture with another compound)
T/C [1]: 96 % of control
T/C [2]: 93 % of control
T/C [3]: 100 % of control
T/C [16]: 96 % of control

CC1CNC(=O)NC1=O (centres undefined)
T/C [13]: 94 % of control
T/C [14]: 86 % of control

Cc1[nH]c2ccccc2c1-c1cc(-c2cc(-c3c(C)[nH]c4ccccc34)on2)no1
T/C (dose: 60.0 mg/kg/injection, schedule: Q01DX005 (ip), vehicle: Klucel + Tween-80): 97 % of control
T/C (dose: 120.0 mg/kg/injection, schedule: Q01DX005 (ip), vehicle: Klucel + Tween-80): 100 % of control
T/C (dose: 240.0 mg/kg/injection, schedule: Q01DX005 (ip), vehicle: Klucel + Tween-80): 103 % of control

OCC1CC2(C1)CC(CO)C2 (centres undefined)
T/C [17]: 97 % of control
T/C [18]: 104 % of control
T/C [19]: 99 % of control

COc1cc([C@H]2c3cc4c(cc3CC3COC(=O)[C@@H]32)OCO4)cc(Br)c1O (some centres undefined)
T/C (dose: 15.0 mg/kg/injection, schedule: Q01DX005 (ip), vehicle: saline with Tween-80): 101 % of control
T/C (dose: 30.0 mg/kg/injection, schedule: Q01DX005 (ip), vehicle: saline with Tween-80): 101 % of control
T/C (dose: 60.0 mg/kg/injection, schedule: Q01DX005 (ip), vehicle: saline with Tween-80): 99 % of control and 104 % of control
T/C (dose: 120.0 mg/kg/injection, schedule: Q01DX005 (ip), vehicle: saline with Tween-80): 110 % of control
T/C (dose: 240.0 mg/kg/injection, schedule: Q01DX005 (ip), vehicle: saline with Tween-80): 110 % of control

CN(C)CCP(=O)(O)O
T/C [17]: 95 % of control
T/C [18]: 100 % of control
T/C [19]: 100 % of control

Cn1c(-c2ccccc2)c(-c2ccccc2)c(=O)c(-c2ccccc2)c1-c1ccccc1
T/C [3]: 92 % of control
T/C [16]: 92 % of control
T/C [20]: 91 % of control

CC(=O)Nc1cc2cc(NS(=O)(=O)c3ccc(Cl)c(Cl)c3)ccc2oc1=O
T/C (dose: 50.0 mg/kg/injection, schedule: Q01DX005 (ip), vehicle: Klucel (hydroxypropylcellulose) (HPC)): 89 % of control
T/C (dose: 100.0 mg/kg/injection, schedule: Q01DX005 (ip), vehicle: Klucel (hydroxypropylcellulose) (HPC)): 93 % of control
T/C (dose: 200.0 mg/kg/injection, schedule: Q01DX005 (ip), vehicle: Klucel (hydroxypropylcellulose) (HPC)): 95 % of control

Nc1nc2nc(N)[nH]c2c(=O)[nH]1
T/C (dose: 12.5 mg/kg/injection, schedule: Q01DX005 (ip), vehicle: saline with Tween-80): 95 % of control
T/C (dose: 25.0 mg/kg/injection, schedule: Q01DX005 (ip), vehicle: saline with Tween-80): 100 % of control and 105 % of control and 106 % of control
T/C [21]: 100 % of control and 104 % of control and 113 % of control
T/C (dose: 200.0 mg/kg/injection, schedule: Q01DX005 (ip), vehicle: saline with Tween-80): 107 % of control

Cc1ccc([N+](=O)[O-])cc1I
T/C [3]: 99 % of control
T/C [16]: 99 % of control
T/C [20]: 100 % of control

N#Cc1c(C(=O)NN)cc(-c2cccc3ccccc23)[nH]c1=O
T/C [21]: 107 % of control
T/C (dose: 100.0 mg/kg/injection, schedule: Q01DX005 (ip), vehicle: saline with Tween-80): 103 % of control

CC(C)(CC(=O)OCCO)c1cc(CC(C)(C)c2cc(CC(C)(C)c3cc(CC(C)(C)C4(C)OCCO4)no3)no2)no1
T/C [6]: 88 % of control
T/C [7]: 87 % of control
T/C [8]: 87 % of control

O=C1NC2(CCCCC2)C(=O)N1CCCN(CCCl)CCCl
T/C (dose: 1.5 mg/kg/injection, schedule: Q01DX005 (ip), vehicle: saline): 121 % of control
T/C (dose: 6.0 mg/kg/injection, schedule: Q01DX005 (ip), vehicle: saline): 153 % of control and 156 % of control
T/C (dose: 12.0 mg/kg/injection, schedule: Q01DX005 (ip), vehicle: saline): 178 % of control and 200 % of control and 208 % of control
T/C (dose: 24.0 mg/kg/injection, schedule: Q01DX005 (ip), vehicle: saline): 162 % of control and 210 % of control

CC(=O)N1CCNC(=O)/C1=C1\CCOC1=O
T/C [13]: 99 % of control
T/C [14]: 101 % of control
T/C [15]: 110 % of control

Cn1cnc2cc3c(cc2c1=O)nc1n3CCCC1
T/C (dose: 100.0 mg/kg/injection, schedule: Q04DX003 (ip), vehicle: saline): 102 % of control
T/C (dose: 200.0 mg/kg/injection, schedule: Q04DX003 (ip), vehicle: saline): 95 % of control

CN1C(=O)c2ccccc2NC(=O)C12O[C@@H]2c1cccc(O)c1 (some centres undefined)
T/C (dose: 1.63 mg/kg/injection, schedule: Q01DX005 (ip), vehicle: DMSO): 106 % of control
T/C (dose: 3.25 mg/kg/injection, schedule: Q01DX005 (ip), vehicle: DMSO): 106 % of control
T/C (dose: 6.5 mg/kg/injection, schedule: Q01DX005 (ip), vehicle: DMSO): 113 % of control
T/C (dose: 13.0 mg/kg/injection, schedule: Q01DX005 (ip), vehicle: DMSO): 100 % of control

C=C1C(=O)OC2C3OC(C)(CCC(O)C3COC(C)=O)CC(OC(=O)/C(=C/C)COC(C)=O)C12 (centres undefined)
T/C (dose: 0.75 mg/kg/injection, schedule: Q01DX009 (ip), vehicle: saline): 116 % of control and 118 % of control
T/C (dose: 0.78 mg/kg/injection, schedule: Q01DX009 (ip), vehicle: Klucel (hydroxypropylcellulose) (HPC)): 99 % of control
T/C (dose: 1.5 mg/kg/injection, schedule: Q01DX009 (ip), vehicle: saline): 100 % of control and 111 % of control
T/C (dose: 1.56 mg/kg/injection, schedule: Q01DX009 (ip), vehicle: Klucel (hydroxypropylcellulose) (HPC)): 113 % of control
T/C (dose: 3.0 mg/kg/injection, schedule: Q01DX009 (ip), vehicle: saline): 101 % of control and 106 % of control
T/C (dose: 3.12 mg/kg/injection, schedule: Q01DX009 (ip), vehicle: Klucel (hydroxypropylcellulose) (HPC)): 105 % of control
T/C (dose: 6.25 mg/kg/injection, schedule: Q01DX009 (ip), vehicle: Klucel (hydroxypropylcellulose) (HPC)): 97 % of control

CCOC(=O)/C(=C/C(C#N)=C/N(C)C)CC
T/C (dose: 50.0 mg/kg/injection, schedule: Q04DX003 (ip), vehicle: saline with Tween-80): 104 % of control
T/C (dose: 100.0 mg/kg/injection, schedule: Q04DX003 (ip), vehicle: saline with Tween-80): 95 % of control
T/C (dose: 200.0 mg/kg/injection, schedule: Q04DX003 (ip), vehicle: saline with Tween-80): 109 % of control

CNC(=S)N/N=C(\C)c1ccccn1
T/C (dose: 12.5 mg/kg/injection, schedule: Q01DX009 (ip), vehicle: saline with Tween-80): 107 % of control and 117 % of control
T/C [12]: 116 % of control
